# In US20120035218A1, “PEST CONTROL COMPOSITION” (SUMITOMO CHEMICAL COMPANY, LIMITED, priority 2010, published 2012):
# Tested on: cat fleas
# Test: Cat flea emergence inhibition from eggs on treated flea-rearing medium
# Assay type: in vivo
# Conditions: 20 flea eggs, after approximately three weeks, corrected against acetone control
# Method: Six gram quantities of medium for rearing fleas (mixed to make sand/powdered feed/dry yeast/dry bovine blood=80/16/3/1 wt %) were placed in vials. Acetone solutions were prepared so that the hydrazide compounds and pyriproxyfen would have the concentrations (wt % versus the medium) shown in Table 2 in the treated medium for rearing fleas. The medium was treated by 1.0 mL of the acetone solution, stirred until homogeneous, and dried. Filter paper (TOYO No. 2; 3.8 cm in diameter) was placed on aluminum dishes 3.8 cm in diameter, and 20 flea eggs were placed on the filter paper using a suitably moistened brush. A quantity of 1.0 g of the dried, treated medium was placed evenly on top of the filter paper on which the eggs rested, and the aluminum dishes were placed in resin petri dishes and stored at a temperature of 26° C. and humidity of 85-95%. Medium that had been treated only by acetone was also processed by the same method as a control group. After approximately three weeks, the emergence of the cat fleas was examined, and the emergence inhibition rate was calculated by the following formula.
# Corrected emergency inhibition rate=(C−T)÷C×100
# C: Emergence rate of untreated control group
# T: Emergence rate of treated group
# [1] = hydrazide compound 0.4 × 10^−4 % in combination with pyriproxyfen 10^−8 % (wt % versus the medium)
# [2] = hydrazide compound alone, 0.4 × 10^−4 % (wt % versus the medium)
Compound,"Emergence inhibition rate (%) (pyriproxyfen alone, 10^−8 % (wt % versus the medium))",Emergence inhibition rate (%) [1],Emergence inhibition rate (%) [2]
"CC(COc1ccc(Oc2ccccc2)cc1)Oc1ccccn1 (centres unmarked) [Pyriproxyfen, 4-phenoxyphenyl=2-(pyridyloxy)propyl=ether, reference compound]",4.0%,,
"O=C(CCC(F)(F)F)NNc1cc(C2=NOC(c3cc(Cl)cc(Cl)c3)(C(F)(F)F)C2)ccc1Cl (centres unmarked) [Hydrazide compound (17), N′-{5-[5-(3,5-dichlorophenyl)-5-trifluoromethyl-4,5-dihydroisoxazol-3-yl]-2-chlorophenyl}-4,4,4-trifluorobutyrohydrazide]",,63%,6.3%
"CN(NC(=O)CCC(F)(F)F)c1cc(C2=NOC(c3cc(Cl)cc(Cl)c3)(C(F)(F)F)C2)ccc1Cl (centres unmarked) [Hydrazide compound (31), N′-methyl-N′-{2-chloro-5-[5-(3,5-dichlorophenyl)-5-trifluoromethyl-4,5-dihydroisoxazol-3-yl]phenyl}-4,4,4-trifluorobutyrohydrazide]",,86%,34%
